# According to patent publication US20090181986A1, “SUBSTITUTED HETEROCYCLIC COMPOUNDS” (priority 2007, published 2009):
# Experiments:
# L-type calcium channel = L-type calcium channel activity well-plate assay (IMR-32 cells, Ca-4 dye, FlexStation); assay type: cell-based, human
# Experimental: Cell Culture: IMR-32 (human neuroblastoma) cells were obtained from The American Type Culture Collection. The cells were maintained in MEM supplemented with 10% fetal bovine serum, 2 mM of L-glutamine, 100 IU/ml of penicillin, 50 μg/ml of streptomycin, 1% of sodium pyruvate, 1% of sodium bicarbonate and 1% of non-essential amino acid. […] Culture medium was changed every two days and cells were recultivated when they reached 70-80% confluent.
# Assay: IMR-32 cells were seeded on a Microtest 96-well Assay Plate (BD FALCON™) at a density of 200,000 cells/well in 200 μl culture medium for overnight. The culture medium was removed, and replaced by 120 μl Ca-4 dye (MDS Analytical Technologies, Sunnyvale, Calif.) in HBSS (1× Hank's Balanced Salt solution plus 20 mM HEPES, pH 7.4) containing 2 mM probenecid. Cells were then incubated for 1 hour at 37° in incubator. Testing compounds were diluted from 5 μM-50 μM in HBSS, and 40 μl were added in cells before assay. […] The inhibition of L-type calcium channel activity by compounds was then calculated.
# hERG potassium channel = hERG potassium channel (Homo sapiens, UniProt Q12809); experiment: hERG screening assay (PatchXpress patch clamp, CHO cells)
# Sequence of hERG potassium channel (Q12809 whole entry): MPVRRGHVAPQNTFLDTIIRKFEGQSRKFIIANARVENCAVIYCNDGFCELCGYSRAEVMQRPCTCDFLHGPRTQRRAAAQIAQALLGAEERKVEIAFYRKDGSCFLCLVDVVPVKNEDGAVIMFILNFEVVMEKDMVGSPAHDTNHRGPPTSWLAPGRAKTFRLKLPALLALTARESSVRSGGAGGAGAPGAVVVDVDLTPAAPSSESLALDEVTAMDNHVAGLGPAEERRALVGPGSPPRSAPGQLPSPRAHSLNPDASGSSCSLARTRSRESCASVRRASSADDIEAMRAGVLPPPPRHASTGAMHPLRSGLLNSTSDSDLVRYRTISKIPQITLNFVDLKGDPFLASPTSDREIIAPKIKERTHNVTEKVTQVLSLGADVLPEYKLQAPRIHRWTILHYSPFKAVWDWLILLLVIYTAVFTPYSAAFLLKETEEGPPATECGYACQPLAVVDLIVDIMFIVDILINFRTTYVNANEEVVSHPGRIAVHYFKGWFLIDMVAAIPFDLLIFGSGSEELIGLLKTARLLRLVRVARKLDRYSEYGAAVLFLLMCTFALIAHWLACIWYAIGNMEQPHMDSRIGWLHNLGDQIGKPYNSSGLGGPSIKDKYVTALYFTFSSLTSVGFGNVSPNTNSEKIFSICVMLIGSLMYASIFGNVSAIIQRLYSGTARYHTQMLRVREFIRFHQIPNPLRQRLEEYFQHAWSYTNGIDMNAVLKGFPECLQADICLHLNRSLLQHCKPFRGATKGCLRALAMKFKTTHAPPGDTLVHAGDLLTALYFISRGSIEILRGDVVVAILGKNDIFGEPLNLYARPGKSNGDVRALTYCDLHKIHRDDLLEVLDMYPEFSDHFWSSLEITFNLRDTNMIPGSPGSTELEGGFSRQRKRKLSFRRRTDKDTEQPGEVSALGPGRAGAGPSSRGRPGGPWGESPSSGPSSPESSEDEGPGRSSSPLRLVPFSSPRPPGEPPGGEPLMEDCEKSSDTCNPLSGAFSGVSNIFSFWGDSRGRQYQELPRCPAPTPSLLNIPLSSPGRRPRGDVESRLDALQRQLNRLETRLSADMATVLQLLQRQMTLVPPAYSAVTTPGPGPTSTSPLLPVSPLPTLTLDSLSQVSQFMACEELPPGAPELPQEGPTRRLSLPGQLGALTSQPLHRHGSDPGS
# Experimental: Compounds were screened to test their activity in blocking the hERG potassium channel. The hERG channel is heterologously expressed in a CHO (Chinese Hamster Ovary) cell line. Cells are maintained with standard tissue culture procedures and stable channel expression is maintained with 500 μg/ml G418 in the culture medium. Cells are harvested for testing on the PatchXpress automated patch clamp with Acctumax (Innovative Cell Technologies, San Diego, Calif.) to isolate single cells.
# The following solutions are used for electrophysiological recordings. The external solution contains: 2 mM CaCl2; 2 mM MgCl2; 4 mM KCl; 150 mM NaCl; 10 mM Glucose; 10 mM HEPES (pH 7.4 with 1M NaOH, osmolarity).
# hERG channels are activated when the voltage is stepped to +20 mV from the −80 mV holding potential (see FIG. 3). During a 5 second step at +20 mV, the channels activate and then largely inactivate, so the currents are relatively small. Upon returning to −50 mV from +20 mV, hERG currents transiently become much larger as inactivation is rapidly removed and then the channel closes. The first step to −50 mV for 300 ms is used as a baseline for measuring the peak amplitude during the step to −50 mV after channel activation. The peak current at −50 mV is measured both under control conditions and after addition of compound.
# All compounds are prepared as 10 mM DMSO stocks in glass vials. Stock solutions are mixed by vigorous vortexing and sonication for about 2 minutes at room temperature. For testing, compounds are diluted in glass vials using an intermediate dilution step in pure DMSO and then further diluted to working concentrations in external solution. Dilutions are prepared no longer than 20 minutes before use.
# After achieving the whole-cell configuration, cells are monitored for 90 seconds to assess stability and washed with external solution for 66 seconds. The voltage protocol described above is then applied to the cells every 12 seconds and throughout the whole procedure. Only cells with stable recording parameters and meeting specified health criteria are allowed to enter the compound addition procedure.
# External solution containing 0.1% DMSO (vehicle) is applied to the cells first to establish the control peak current amplitude. After allowing the current to stabilize for 3 to 5 minutes, 1 μM and then 10 μM test compounds are applied. Each compound concentration is added 4 times and cells are kept in test solution until the effect of the compound reaches steady state or for a maximum of 12 minutes. […] Washout in the external solution compartment is performed until the recovery of the current reaches steady state. Data are analyzed using DataXpress, Clampfit (Molecular Devices, Inc., Sunnyvale) and Origin 7 (Originlab Corp.)
Compound,CaL Plate Assay % blk (1 μM test cmpd) (L-type calcium channel) [%],CaL Plate Assay % blk (10 μM test cmpd) (L-type calcium channel) [%],hERG Patch Clamp hERG % blk (1 μM test cmpd) (hERG potassium channel) [%],hERG Patch Clamp hERG % blk (10 μM test cmpd) (hERG potassium channel) [%]
"CCOC(=O)C1=C(C)Nc2nnnn2C1c1ccc2ccccc2c1 (stereo not drawn) [PT-008, ethyl 5-methyl-7-(naphthalen-2-yl)-4,7-dihydrotetrazolo[1,5-a]pyrimidine-6-carboxylate]",0,9,10,33.5
"CC1=C(C(=O)OCC(F)(F)F)C(c2cccc3ccccc23)n2nnnc2N1 (stereo not drawn) [PT-014, 2,2,2-trifluoroethyl 5-methyl-7-(naphthalen-1-yl)-4,7-dihydrotetrazolo[1,5-a]pyrimidine-6-carboxylate]",0,40,,
"CC1=C(C(=O)OCc2ccccc2)C(c2cccc3ccccc23)n2nnnc2N1 (stereo not drawn) [PT-027, benzyl 5-methyl-7-(naphthalen-1-yl)-4,7-dihydrotetrazolo[1,5-a]pyrimidine-6-carboxylate]",0,0,14,64.5
"CC1=C(C(=O)OCc2ccccc2)C(c2c3ccccc3cc3ccccc23)n2nnnc2N1 (stereo not drawn) [PT-039, benzyl 7-(anthracen-9-yl)-5-methyl-4,7-dihydrotetrazolo[1,5-a]pyrimidine-6-carboxylate]",2,0,10,27.5
"CC1=C(C(=O)OCc2ccccc2)C(c2cccs2)n2nnnc2N1 (stereo not drawn) [PT-040, benzyl 5-methyl-7-(thiophen-2-yl)-4,7-dihydrotetrazolo[1,5-a]pyrimidine-6-carboxylate]",0,18,14.5,24.5
"CC1=C(C(=O)OCc2ccccc2)C(c2csc3ccccc23)n2nnnc2N1 (stereo not drawn) [PT-042, benzyl 7-(benzo[b]thiophen-3-yl)-5-methyl-4,7-dihydrotetrazolo[1,5-a]pyrimidine-6-carboxylate]",0,16,11,52.5
"CC1=C(C(=O)OCc2ccccc2)C(c2cc3ccccc3s2)n2nnnc2N1 (stereo not drawn) [PT-043, benzyl 7-(benzo[b]thiophen-2-yl)-5-methyl-4,7-dihydrotetrazolo[1,5-a]pyrimidine-6-carboxylate]",23,60,,
"CC1=C(C(=O)OCc2ccccc2)C(c2sc3ccccc3c2C)n2nnnc2N1 (stereo not drawn) [PT-044, benzyl 5-methyl-7-(3-methylbenzo[b]thiophen-2-yl)-4,7-dihydrotetrazolo[1,5-a]pyrimidine-6-carboxylate]",7,35,16.5,40
"CC1=C(C(=O)OCc2ccccc2)C(c2cc3ccccc3o2)n2nnnc2N1 (stereo not drawn) [PT-045, benzyl 7-(benzofuran-2-yl)-5-methyl-4,7-dihydrotetrazolo[1,5-a]pyrimidine-6-carboxylate]",0,98,10,70
"CC1=C(C(=O)O[C@@H](C)c2ccccc2)C(c2cccc3ccccc23)n2nnnc2N1 (stereo partly drawn) [PT-048, (S)-1-phenylethyl 5-methyl-7-(naphthalen-1-yl)-4,7-dihydrotetrazolo[1,5-a]pyrimidine-6-carboxylate]",0,74,,
"CC1=C(C(=O)OC2CCc3ccccc32)C(c2cccc3ccccc23)n2nnnc2N1 (stereo not drawn) [PT-062, 2,3-dihydro-1H-inden-1-yl 5-methyl-7-(naphthalen-1-yl)-4,7-dihydrotetrazolo[1,5-a]pyrimidine-6-carboxylate]",51,,,14
"N#CC1=C(N)NC2=C(C(=O)CCC2)C1c1ccc(Br)cc1 (stereo not drawn) [PT-095, 2-amino-4-(4-bromophenyl)-5-oxo-1,4,5,6,7,8-hexahydroquinoline-3-carbonitrile]",0,15,10,24.5
"N#CC1=C(N)OC2=C(C(=O)CCC2)C1c1ccc(Br)cc1 (stereo not drawn) [PT-096, 2-amino-4-(4-bromophenyl)-5-oxo-5,6,7,8-tetrahydro-4H-chromene-3-carbonitrile]",8,39,15,48
"N#CC1=C(N)OC2=C(C(=O)CC(c3ccccc3)C2)C1c1ccsc1 (stereo not drawn) [PT-102, 2-amino-5-oxo-7-phenyl-4-(thiophen-3-yl)-5,6,7,8-tetrahydro-4H-chromene-3-carbonitrile]",6,51,,
"CCOC(=O)C1=C(C)NC(C)=C(C(=O)OCC)C1c1ccsc1 [PT-110, diethyl 2,6-dimethyl-4-(thiophen-3-yl)-1,4-dihydropyridine-3,5-dicarboxylate]",86,88,,
"CCOC(=O)C1=C(C)NC(C)=C(C(=O)OCC)C1c1csc2ccccc12 [PT-115, diethyl 4-(benzo[b]thiophen-3-yl)-2,6-dimethyl-1,4-dihydropyridine-3,5-dicarboxylate]",52,65,,
"CCOC(=O)C1=C(C)NC(C)=C(C(=O)OCC)C1c1ccc(CC)o1 [PT-121, diethyl 4-(5-ethylfuran-2-yl)-2,6-dimethyl-1,4-dihydropyridine-3,5-dicarboxylate]",35,72,,
"CCOC(=O)C1=C(C)NC2=C(C(=O)CCC2)C1c1ccc(C)c2ccccc12 (stereo not drawn) [PT-135, ethyl 2-methyl-4-(4-methylnaphthalen-1-yl)-5-oxo-1,4,5,6,7,8-hexahydroquinoline-3-carboxylate]",24,62,,
"CCCC1=C(C(=O)OCC)C(c2ccsc2)C2=C(CC(c3ccco3)CC2=O)N1 (stereo not drawn) [PT-150, ethyl 7-(furan-2-yl)-5-oxo-2-propyl-4-(thiophen-3-yl)-1,4,5,6,7,8-hexahydroquinoline-3-carboxylate]",4,71,,
"CC1=C(C(=O)OC(C)C)C(c2ccc3ccccc3c2)C2=C(CCCC2=O)N1 (stereo not drawn) [PT-157, isopropyl 2-methyl-4-(naphthalen-2-yl)-5-oxo-1,4,5,6,7,8-hexahydroquinoline-3-carboxylate]",3,43,,
"CC1=C(C(=O)NCCCCc2ccccc2)C(c2ccsc2)C2=C(CCCC2=O)N1 (stereo not drawn) [PT-164, 2-methyl-5-oxo-N-(4-phenylbutyl)-4-(thiophen-3-yl)-1,4,5,6,7,8-hexahydroquinoline-3-carboxamide]",20,77,,
